Source: PubChem BioAssay (NCI)
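Following 48 hours of exposure in 96-well plates, responses at five concentrations were used to interpolate endpoints linearly. GI50 = concentration required for 50% inhibition of growth. TGI marks complete inhibition of growth.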

Experiments:
Experiment in all cases: NCI anticancer screen, dose series, 48 h
A549 NSCLC = test system: A549 NSCLC
HOP-62 NSCLC = test system: HOP-62 NSCLC
RXF 393 renal = test system: RXF 393 renal
SF-295 CNS = test system: SF-295 CNS
MDA-MB-435 = test system: MDA-MB-435
SK-MEL-28 melanoma = test system: SK-MEL-28 melanoma
OVCAR-3 ovarian = test system: OVCAR-3 ovarian
UACC-62 melanoma = test system: UACC-62 melanoma
OVCAR-8 ovarian = test system: OVCAR-8 ovarian
CAKI-1 renal = test system: CAKI-1 renal

Row | Compound | TGI (A549 NSCLC) [µM] | TGI (HOP-62 NSCLC) [µM] | TGI (RXF 393 renal) [µM] | TGI (SF-295 CNS) [µM] | TGI (MDA-MB-435) [µM] | TGI (SK-MEL-28 melanoma) [µM] | TGI (OVCAR-3 ovarian) [µM] | TGI (UACC-62 melanoma) [µM] | TGI (OVCAR-8 ovarian) [µM] | TGI (CAKI-1 renal) [µM] | GI50 (A549 NSCLC) [µM] | GI50 (RXF 393 renal) [µM] | GI50 (MDA-MB-435) [µM] | GI50 (OVCAR-3 ovarian) [µM] | GI50 (UACC-62 melanoma) [µM] | GI50 (OVCAR-8 ovarian) [µM]
1 | CNC(=O)OCC1=C(COC(=O)NC)C(C)N(c2ccc(OC)cc2)C1 (stereo not given) | > 100 | > 100 | > 100 | > 100 | > 100 | > 100 | > 100 | 57.3 | > 100 |  |  |  |  |  |  | 
2 | COC(=O)C1CCC(=O)N1C(c1ccccc1)c1ccc(OC)c(OC)c1 (stereo not given) | > 100 | > 100 |  | > 100 | > 100 | > 100 | > 100 | > 100 | > 100 | > 100 |  |  |  |  |  | 
3 | O=C1CCC(=O)N1n1c(Cc2ccccc2)n[nH]c1=O | > 100 | > 100 | > 100 | > 100 | > 100 | > 100 | > 100 | > 100 | > 100 | > 100 |  |  |  |  |  | 
4 | Cc1cc(O)c2c(=O)c3ccccc3[nH]c2c1 | > 100 | 71.2 | 82.8 | 51.2 | > 100 | > 100 | > 100 |  | 70.2 | 90.6 |  |  |  |  |  | 
5 | CC1=C(C)[C@@]2(C)O[C@@]2(C)O[C@@]2(C)O[C@@]12C | > 100 | > 100 |  | > 100 | > 100 | > 100 |  | > 100 | > 100 | > 100 |  |  |  |  |  | 
6 | CC(=O)NC1=C(NCCC(C)C)C(=O)c2ccccc2C1=O | > 50 | > 50 | > 50 | > 50 |  | > 50 | > 50 | > 50 | > 50 |  |  |  |  |  |  | 
7 | FC(F)(F)c1cc(Cl)cnc1N/N=C(/c1ccccc1)c1ccccn1 | 22.9 | 19.7 | 40.9 | 5.5 | > 100 | > 100 | 12.7 | 13.2 | 5.06 | 22.7 |  |  |  |  |  | 
8 | O=C(O)CN(CC(=O)O)C1CCCCC1N(CC(=O)O)CC(=O)NCCN=C=S (stereo not given) | > 100 | > 100 | > 100 | > 100 | > 100 | > 100 | > 100 | > 100 | > 100 | > 100 |  |  |  |  |  | 
9 | Cc1cc(N(CCC#N)CCC#N)ccc1/C(N=Nc1ccc(Cl)cc1)=N\NC(=O)c1ccccc1 | > 100 | > 100 | > 100 | 77.6 | 76.8 |  | > 100 | > 100 | > 100 | > 100 |  |  |  |  |  | 
10 | CC(C)/C(Cl)=N\OC(=O)Nc1ccc(S(N)(=O)=O)cc1 | 37.9 | > 57.2 | 25.2 | 29.3 |  | 31.3 | 28.2 | 37 | 32 | 31.1 |  |  |  |  |  | 
11 | C[n+]1c2ccccc2c(/C=N\NS(=O)(=O)c2ccc(O)c(C(=O)O)c2)c2ccccc21 | > 100 | > 100 | > 100 | > 100 |  | > 100 | > 100 | > 100 | > 100 | > 100 |  |  |  |  |  | 
12 | CCCNC1=C2CC(C)CC(OC)[C@@H](O)[C@H](C)/C=C(\C)C(OC(N)=O)C(OC)/C=C\C=C(/C)C(=O)NC(=CC1=O)C2=O (stereo not given in full) | 27.9 | 44.4 | 48.7 | 19.9 | 28.8 |  | 28.8 | 41.9 | 32.5 | > 100 | 0.514 | 13.8 | 0.0903 | 0.613 | 0.253 | 0.393
13 | CNC(=O)C(C)C1CCC2(C)C=CC(=O)C(C)=C2C1O (stereo not given) | > 90.2 | > 100 | > 100 | > 70.8 |  | > 100 | > 100 | > 100 | > 87.9 | 91.7 |  |  |  |  |  | 
14 | COc1ccc(CNc2nc(NCc3ccc(OC)c(OC)c3)nc(NC3CCCCC3)n2)cc1 | > 100 |  | 6.22 | > 100 | > 100 | > 100 | > 100 | > 100 | > 100 | > 100 |  |  |  |  |  | 
15 | CC[C@@]1(C[C@H]2C[C@@]3(C(=O)OC)c4[nH]c5ccccc5c4CCN3C2=O)COC2(CCCCC2)O1 | > 100 | > 100 | > 100 | > 100 |  |  | > 100 | > 100 | > 100 | > 100 |  |  |  |  |  | 
16 | O=C1CCC23CC(C=CC=C12)n1c(=O)n(-c2ccccc2)c(=O)n13 (stereo not given) | > 100 | > 100 | > 100 | > 100 |  | > 100 | > 100 | > 100 | > 100 | > 83.4 |  |  |  |  |  | 
17 | CCC[C@@H](O)C[C@@H]1CCC[C@H](C[C@@H](O)CC)N1C | > 100 | > 100 |  | > 100 | > 100 | > 100 | > 100 | > 100 | > 100 | > 100 |  |  |  |  |  | 
18 | C(/c1ccco1)=c1/nc(-c2ccccc2)n2c1nc1ccccc12 | > 100 | > 100 | > 100 | > 100 | > 100 |  | > 100 | > 100 | > 100 | 72.2 |  |  |  |  |  | 
19 | CC(=O)Nc1ccc(-c2nnc(SCC(=O)Nc3ccc([N+](=O)[O-])cc3)o2)cc1 | 37 | 53.4 | 27.9 | 27.4 |  | 27.7 | 28.1 | 21.5 | 29.9 | 27.5 |  |  |  |  |  | 
20 | Cc1cccc2c(=O)cc(-c3ccccc3)[nH]c12 | > 100 | 42.6 | 38.2 | 18.7 |  | > 100 | > 100 | > 100 |  |  |  |  |  |  |  | 
21 | CCOC(=O)Nn1c(C)nnc1-c1ccccc1 | > 100 |  | > 100 | > 100 | > 100 |  | > 100 | > 100 | > 100 | > 100 |  |  |  |  |  | 
22 | O=C1OCC(O)=C1C(c1ccc(Cl)cc1)c1cc2c(cc1O)OCO2 (stereo not given) | > 100 | > 100 | > 100 |  | > 100 | > 100 | > 100 | > 100 |  | > 100 |  |  |  |  |  | 
